Where two headings read alike, the source gives them in different places.
Experiments:
[1] = Text: Twenty 15-day-old weanling rats from Holzmann Company were placed on a an adequate synthetic diet called “Diet 11” (Suda, T., et al., J. Nutr. 100:1049-1052, 1970). This diet is supplemented with vitamins A, D, E and K as described in that paper. Therefore, these are vitamin D-sufficient animals.
The animals were then placed on a basal diet that contains 0.02% calcium, i.e. an extremely low calcium diet. These animals served as controls. Another group were placed on the same diet containing calcium formate, providing calcium at 0.25% of the diet. Another group was supplied calcium formate at 0.47% calcium in the diet, and another group was provided 0.47% calcium in the form of calcium carbonate. Growth of the animals reflects the ability of the animals to utilize calcium. […] 57:449-468 (1955).

Remark: listed apart in the source
[2] = 1% Ca formate in diet, 1 week on diet
[3] = 1% Ca formate in diet, 2 weeks on diet
[4] = 2% Ca formate in diet, 1 week on diet
[5] = 2% Ca formate in diet, 2 weeks on diet
[6] = 3% Ca formate in diet, 1 week on diet
[7] = 3% Ca formate in diet, 2 weeks on diet

## O=C[O-].O=C[O-].[Ca+2] [Calcium Formate, calcium formate]
[1]; 0.25% Ca in diet, day 7
  Average Body Weight ± S.E.M for 5 Rats: 54.3 ± 4.0 Grams
[1]; 0.25% Ca in diet, day 14
  Average Body Weight ± S.E.M for 5 Rats: 84.6 ± 5.5 Grams
[1]; 0.25% Ca in diet, day 21
  Average Body Weight ± S.E.M for 5 Rats: 131.0 ± 5.7 Grams
[1]; 0.25% calcium as the formate
  Growth in comparison to other treatment groups: slightly better growth
[1]; 0.47% Ca in diet, day 7
  Average Body Weight ± S.E.M for 5 Rats: 51.0 ± 10.6 Grams
[1]; 0.47% Ca in diet, day 14
  Average Body Weight ± S.E.M for 5 Rats: 78.0 ± 19^ Grams
[1]; 0.47% Ca in diet, day 21
  Average Body Weight ± S.E.M for 5 Rats: 127 ± 11 Grams
[1]; compared with calcium carbonate
  Ability to supply calcium to experimental rats: at least equal to calcium carbonate
[2]
  Serum (mean ± SEM): 3.25 ± .31 mg %
  Weight: 229 ± 5.5
[3]
  Serum Ca (mean ± SEM): 14.0 ± .51 mg %
  Weight: 211 ± 3.8
[4]
  Serum (mean ± SEM): 2.50 ± .32 mg %
  Weight: 211 ± 6.3
[5]
  Serum (mean ± SEM): 2.7 ± .24 mg %
  Serum Ca (mean ± SEM): 12.8 ± .94 mg %
  Weight: 198 ± 5.2
2% vs 3% calcium formate in diet
  Difference in serum phosphorus between dose levels: little difference in serum phosphorus
[6]
  Serum (mean ± SEM): 2.5 ± .20 mg %
  Weight: 194 ± 6.5
[7]
  Serum (mean ± SEM): 2.9 ± 0.8 mg %
  Serum Ca (mean ± SEM): 12.9 ± 1.3 mg %
  Weight: 150 ± 8.0
All rats supplied with calcium formate (1-3% of diet)
  Serum phosphorus compared with control rats: less serum phosphorus than control rats

## O=C([O-])[O-].[Ca+2] [Calcium Carbonate, calcium carbonate, reference compound]
[1]; 0.47% Ca in diet, day 7
  Average Body Weight ± S.E.M for 5 Rats: 48.6 ± 4.9 Grams
[1]; 0.47% Ca in diet, day 14
  Average Body Weight ± S.E.M for 5 Rats: 80.4 ± 10.4 Grams
[1]; 0.47% Ca in diet, day 21
  Average Body Weight ± S.E.M for 5 Rats: 126.2 ± 11 Grams

Reference: US20170246206A1, “Calcium Formate for Use as a Dietary Supplement” (Wisconsin Alumni Research Foundation, priority 1999, published 2017)
